Data: patent US11278555B2, “Combinational therapies for treatment of cancer comprising a bacteriochlorophyll derivative” (Yeda Research and Development Co. Ltd., priority 2016, dated 2022)

Tested on: Foxp3+ Treg, CD8+ T cells, G-MDSC/neutrophils
Format: in vivo
Settings: CTX treated vs only VTP
Protocol: • (i) Bacteriochlorophyll Derivatives—The Bchl derivatives and RGD-conjugates thereof were provided by Steba Biotech (Rehovot, Israel). […] Concentration was verified by spectrophotometric measurement. STL-7012 was provided as dipotassium salt. Working solution was prepared by dissolving STL-7012 K^+ salt in 5% mannitol solution (1 mg/ml). […] WST11 was supplied as a powder and kept in the dark at −20° C. Stock was prepared by dissolving WST11 in DDW containing 5% glucose and 0.67% mannitol, aliquoted and lyophilized. Working solution was reconstituted with DDW and the concentration of solution was confirmed spectrophotometrically. Alternatively, Clinical WST11 (batch: P00611, and 10-130611) was supplied as lyophilized formulation. Material was dissolved in 5% dextrose, aliquoted and stored at −20° C. […] Aliquots were thawed, diluted with saline to a desired concentration and used on the same day at a dose of 75 mg/kg. Cyclophosphamide (CTX, Endoxan®, Baxter Oncology Gmbh, Germany) was purchased from a local pharmacy. A stock solution of 20 mg/ml was prepared by dissolving in 0.9% NaCl, aliquoted and stored at −20° C. Aliquots were thawed, diluted with saline if needed to a desired concentration and used on the same day prepared at indicated doses. • (iii) Murine cell lines—Mammary luciferase (luc)-labeled 4T1 cell line (4T1-Luc) was a kind gift from Dr. Zvi Granot (Faculty of Medicine, The Hebrew University of Jerusalem, Israel); melanoma B16-F10 cell line was obtained from the American Type Culture Collection (ATCC, Manassas, Va.); bladder MB49 cell line was a kind gift from James Allison (MSKCC, New York, USA), and luc-labeled MB49-cell line was established using the murine stem cell virus (MSCV)-puromycin-luc-GFP construct (kindly provided by Dr. Emily Cheng, Human Oncology and Pathogenesis Program, MSKCC). 4T1 and MB49 cells were maintained in DMEM medium and B16-F10 cells in RPMI medium supplemented with 1 mmol/L sodium pyruvate, 10% fetal calf serum (FCS), 250 μg/ml hygromycin, 0.06 mg/ml penicillin and 0.1 mg/ml streptomycin. The cells were grown as monolayer at 37° C. in a humidified atmosphere (5% CO2, 95% air). • (iv) Murine tumor models—Female, Balb/c mice (6-8 week old) were grafted either subcutaneously (s.c.) into the right hind leg or orthotopically with 1×10^6 4T1 cells suspended in 50 or 1000 PBS. […] Whole body imaging of luciferase-transfected tumors and metastases were recorded five minutes following 75 mg Kg^−1 intraperitoneal (i.p.) injection of D-luciferin with respective filter sets. • (vi) PDT treatment protocol: 4T1-Luc cells were grafted in the mammary pad of Balb/c mice. […] Ablation of primary tumors was assessed every 7 days by imaging the tumor's luciferase-mediated bioluminescence signal, using IVIS.

Structure (SMILES): CCC1c2cc3[n-]c(c(CC(=O)OC)c4nc(cc5[n-]c(cc(n2)C1C)c(C(C)=O)c5C)C(C)C4CCC(=O)[O-])c(C(=O)NCCS(=O)(=O)[O-])c3C.[K+].[K+].[Pd+2] (stereo not shown) [WST11, Palladium 3^1-oxo-15-methoxycarbonylmethyl-rhodobacteriochlorin 13^1-(2-sulfoethyl) amide dipotassium salt]
- total cell numbers in draining lymph nodes and spleens after VTP: decrease in cell counts
